# Data published in patent US12660819B2, “Herbicidal derivatives” (SYNGENTA CROP PROTECTION AG, priority 2020, dated 2026).
# How the values were obtained:
# Format in all cases: in vivo
# [1] = tested on: Amaranthus retoflexus (AMARE); assay: Post-emergence Test (glasshouse, percentage damage to the plant); settings: post-emergence spray, 1000 g/ha unless otherwise stated, evaluated after 13 days
# Summary of the method: (§1)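 Compound formulated in 50:50 acetone/water with 0.5% Tween 20 was diluted to an aqueous spray and applied at 1000 g/ha, unless otherwise stated, onto sown pots. Evaluation after 13 days gave percentage damage, banded into a 1–5 score.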
# [2] = tested on: Echinochloa crus-galli (ECHCG); assay: as above; settings: post-emergence spray, 1000 g/ha unless otherwise stated, evaluated after 13 days
# Summary of the method: as §1
# [3] = tested on: Ipomoea hederacea (IPOHE); assay: as above; settings: post-emergence spray, 1000 g/ha unless otherwise stated, evaluated after 13 days
# Summary of the method: (§2)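 Seeds are sown in standard soil under controlled glasshouse conditions. The pots are then sprayed at 1000 g/ha, unless otherwise stated, with compound in acetone/water (50:50) containing 0.5% Tween 20. After 13 days further growth, percentage plant damage is scored from 1 (0-20%) to 5 (81-100%).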
# Lolium perenne (LOLPE) [4] = assay: as above; settings: post-emergence spray, 1000 g/ha unless otherwise stated, evaluated after 13 days
# Summary of the method: as §1
# Setaria faberi (SETFA) [5] = assay: as above; settings: post-emergence spray, 1000 g/ha unless otherwise stated, evaluated after 13 days
# Summary of the method: as §2
# Solanum nigrum (SOLNI) [6] = assay: as above; settings: post-emergence spray, 1000 g/ha unless otherwise stated, evaluated after 13 days
# Summary of the method: as §1
# [7] = tested on: Amaranthus retoflexus (AMARE); assay: Pre-emergence Test (glasshouse, percentage damage to the plant); settings: 1000 g/ha unless otherwise stated, five-point scale
# Solanum nigrum (SOLNI) [8] = assay: as above; settings: 1000 g/ha unless otherwise stated, five-point scale
# Setaria faberi (SETFA) [9] = assay: as above; settings: 1000 g/ha unless otherwise stated, five-point scale
# Lolium perenne (LOLPE) [10] = assay: as above; settings: 1000 g/ha unless otherwise stated, five-point scale
# [11] = tested on: Echinochloa crus-galli (ECHCG); assay: as above; settings: 1000 g/ha unless otherwise stated, five-point scale
# [12] = tested on: Ipomoea hederacea (IPOHE); assay: as above; settings: 1000 g/ha unless otherwise stated, five-point scale
SMILES,"Post-emergence Test AMARE, percentage damage to the plant (five-point scale) [1]","Post-emergence Test ECHCG, percentage damage to the plant (five-point scale) [2]","Post-emergence Test IPOHE, percentage damage to the plant (five-point scale) [3]","Post-emergence Test LOLPE, percentage damage to the plant (five-point scale) (Lolium perenne (LOLPE) [4])","Post-emergence Test SETFA, percentage damage to the plant (five-point scale) (Setaria faberi (SETFA) [5])","Post-emergence Test SOLNI, percentage damage to the plant (five-point scale) (Solanum nigrum (SOLNI) [6])","percentage damage to the plant, AMARE [7]","percentage damage to the plant, SOLNI (Solanum nigrum (SOLNI) [8])","percentage damage to the plant, SETFA (Setaria faberi (SETFA) [9])","percentage damage to the plant, LOLPE (Lolium perenne (LOLPE) [10])","percentage damage to the plant, ECHCG [11]","percentage damage to the plant, IPOHE [12]"
"CCn1c(C)c(-c2ccc(C(F)(F)F)cc2)c(=O)c(C(=O)O)c1-c1ccc(Cl)c(Cl)c1 [Compound 26, 2-(3,4-dichlorophenyl)-1-ethyl-6-methyl-4-oxo-5-[4-(trifluoromethyl)phenyl]pyridine-3-carboxylic acid]",5 (5=81-100%),4 (4=61-80%),4 (4=61-80%),1 (1=0-20%),5 (5=81-100%),2 (2=21-40%),1 (1=0-20%),1 (1=0-20%),1 (1=0-20%),1 (1=0-20%),1 (1=0-20%),1 (1=0-20%)
"CCn1c(C)c(-c2ccc(F)cc2)c(=O)c(C(=O)O)c1-c1ccc(Cl)c(Cl)c1 [Compound 11, 2-(3,4-dichlorophenyl)-1-ethyl-5-(4-fluorophenyl)-6-methyl-4-oxo-pyridine-3-carboxylic acid]",4 (4=61-80%),4 (4=61-80%),4 (4=61-80%),2 (2=21-40%),4 (4=61-80%),5 (5=81-100%),5 (5=81-100%),5 (5=81-100%),5 (5=81-100%),1 (1=0-20%),5 (5=81-100%),2 (2=21-40%)
"CCn1c(C)c(-c2ccc(OCc3ccccc3)cc2)c(=O)c(C(=O)O)c1-c1ccc(Cl)c(Cl)c1 [Compound 34, 5-(4-benzyloxyphenyl)-2-(3,4-dichlorophenyl)-1-ethyl-6-methyl-4-oxo-pyridine-3-carboxylic acid]",4 (4=61-80%),2 (2=21-40%),1 (1=0-20%),1 (1=0-20%),2 (2=21-40%),4 (4=61-80%),3 (3=41-60%),2 (2=21-40%),3 (3=41-60%),2 (2=21-40%),1 (1=0-20%),1 (1=0-20%)
"CCn1c(C)c(-c2cccc(OC(F)(F)F)c2)c(=O)c(C(=O)O)c1-c1ccc(Cl)c(Cl)c1 [Compound 16, 2-(3,4-dichlorophenyl)-1-ethyl-6-methyl-4-oxo-5-[3-(trifluoromethoxy)phenyl]pyridine-3-carboxylic acid]",4 (4=61-80%),5 (5=81-100%),4 (4=61-80%),1 (1=0-20%),5 (5=81-100%),4 (4=61-80%),1 (1=0-20%),1 (1=0-20%),3 (3=41-60%),1 (1=0-20%),4 (4=61-80%),2 (2=21-40%)
"CCn1c(C)c(-c2cccnc2F)c(=O)c(C(=O)O)c1-c1ccc(Cl)c(Cl)c1 [Compound 6, 2-(3,4-dichlorophenyl)-1-ethyl-5-(2-fluoro-3-pyridyl)-6-methyl-4-oxo-pyridine-3-carboxylic acid]",4 (4=61-80%),4 (4=61-80%),1 (1=0-20%),4 (4=61-80%),4 (4=61-80%),3 (3=41-60%),4 (4=61-80%),3 (3=41-60%),5 (5=81-100%),4 (4=61-80%),4 (4=61-80%),1 (1=0-20%)
"CCn1c(C)c(-c2ccnnc2)c(=O)c(C(=O)O)c1-c1ccc(Cl)c(Cl)c1 [Compound 35, 2-(3,4-dichlorophenyl)-1-ethyl-6-methyl-4-oxo-5-pyridazin-4-yl-pyridine-3-carboxylic acid;2,2,2-trifluoroacetic acid, 2,2,2-trifluoroacetate]",1 (1=0-20%),2 (2=21-40%),1 (1=0-20%),1 (1=0-20%),2 (2=21-40%),1 (1=0-20%),1 (1=0-20%),1 (1=0-20%),1 (1=0-20%),1 (1=0-20%),1 (1=0-20%),1 (1=0-20%)
"CCn1c(C)c(-c2ccc(S(C)(=O)=O)cc2)c(=O)c(C(=O)O)c1-c1ccc(Cl)c(Cl)c1 [Compound 32, 2-(3,4-dichlorophenyl)-1-ethyl-6-methyl-5-(4-methylsulfonylphenyl)-4-oxo-pyridine-3-carboxylic acid]",1 (1=0-20%),4 (4=61-80%),1 (1=0-20%),1 (1=0-20%),3 (3=41-60%),3 (3=41-60%),1 (1=0-20%),1 (1=0-20%),4 (4=61-80%),1 (1=0-20%),4 (4=61-80%),1 (1=0-20%)
